Reference: EPA's CvTdb concentration-time database

How the values were obtained:
[1] = system: Rat; assay: concentration in plasma after dosing; conditions: 20 min; dosed: Pyridine; 10 mg/kg; iv; Male; F344
[2] = system: Rat; assay: concentration in plasma after dosing; conditions: 50 min; dosed: Pyridine; 10 mg/kg; iv; Male; F344
[3] = system: Mouse; assay: concentration in plasma after dosing; conditions: 3 h; dosed: 2-Hydroxy-4-methoxybenzophenone; 50 mg/kg; iv; Male; B6C3F1
[4] = system: Mouse; assay: concentration in plasma after dosing; conditions: 2 h; dosed: 2-Hydroxy-4-methoxybenzophenone; 250 mg/kg; oral; Female; B6C3F1
[5] = system: Rat; assay: concentration in plasma after dosing; conditions: 0.25 h; dosed: 2-Hydroxy-4-methoxybenzophenone; 500 mg/kg; oral; Female; F344
[6] = system: Mouse; assay: concentration in plasma after dosing; conditions: 10 min; dosed: 2-Hydroxy-4-methoxybenzophenone; 50 mg/kg; iv; Male; B6C3F1
[7] = system: Mouse; assay: concentration in plasma after dosing; conditions: dosed: 2-Hydroxy-4-methoxybenzophenone, 100 mg/kg, oral, Female, B6C3F1
[8] = system: Rat; assay: concentration in plasma after dosing; conditions: dosed: 2-Hydroxy-4-methoxybenzophenone, 250 mg/kg, oral, Male, F344
[9] = system: Rat; assay: concentration in plasma after dosing; conditions: dosed: 2-Hydroxy-4-methoxybenzophenone, 500 mg/kg, oral, Male, F344
[10] = system: Rat; assay: concentration in plasma after dosing; conditions: dosed: 2-Hydroxy-4-methoxybenzophenone, 100 mg/kg, oral, Female, F344
[11] = system: Rat; assay: concentration in plasma after dosing; conditions: dosed: 2-Hydroxy-4-methoxybenzophenone, 100 mg/kg, oral, Female, F344; remark: listed apart in the source
[12] = system: Rat; assay: concentration in brain after dosing; conditions: 12 h; dosed: alpha-Thujone; 50 mg/kg; oral; Male; Harlan Sprague Dawley
[13] = system: Rat; assay: concentration in brain after dosing; conditions: 3 h; dosed: alpha-Thujone; 50 mg/kg; oral; Female; Harlan Sprague Dawley
[14] = system: Rat; assay: concentration in brain after dosing; conditions: 3 h; dosed: alpha-Thujone; 50 mg/kg; oral; Female; Harlan Sprague Dawley; remark: listed apart in the source
[15] = system: Rat; assay: concentration in brain after dosing; conditions: 6 h; dosed: alpha-Thujone; 25 mg/kg; oral; Male; Harlan Sprague Dawley
[16] = system: Rat; assay: concentration in plasma after dosing; conditions: 2 min; dosed: alpha-Thujone; 50 mg/kg; oral; Female; Harlan Sprague Dawley
[17] = system: Rat; assay: concentration in plasma after dosing; conditions: 5 min; dosed: alpha-Thujone; 25 mg/kg; oral; Male; Harlan Sprague Dawley
[18] = system: Rat; assay: concentration in plasma after dosing; conditions: 6 h; dosed: alpha-Thujone; 25 mg/kg; oral; Male; Harlan Sprague Dawley
[19] = system: Rat; assay: concentration in plasma after dosing; conditions: 1.5 h; dosed: alpha-Thujone; 25 mg/kg; oral; Male; Harlan Sprague Dawley
[20] = system: Rat; assay: concentration in plasma after dosing; conditions: 0.5 h; dosed: alpha-Thujone; 25 mg/kg; oral; Male; Harlan Sprague Dawley
[21] = system: Rat; assay: concentration in plasma after dosing; conditions: 3 h; dosed: alpha-Thujone; 25 mg/kg; oral; Female; Harlan Sprague Dawley
[22] = system: Rat; assay: concentration in brain after dosing; conditions: 12 h; dosed: Perfluorohexane-1-sulphonic acid – potassium salt; 16 mg/kg; oral; Female; F344
[23] = system: Rat; assay: concentration in kidney after dosing; conditions: 1200 h; dosed: Perfluorohexane-1-sulphonic acid – potassium salt; 16 mg/kg; oral; Male; Harlan Sprague Dawley
[24] = system: Rat; assay: concentration in kidney after dosing; conditions: 3 h; dosed: Perfluorohexane-1-sulphonic acid – potassium salt; 16 mg/kg; oral; Female; F344
[25] = system: Rat; assay: concentration in plasma after dosing; conditions: dosed: 2,4-Dichlorophenoxyacetic acid, 2.0 mg/kg, iv, Male, Sprague-Dawley
[26] = system: Mouse; assay: concentration in plasma after dosing; conditions: dosed: 2,4-Dichlorophenoxyacetic acid, 1.0 mg/kg, iv, Male, B6C3F1
[27] = system: Mouse; assay: concentration in plasma after dosing; conditions: dosed: 2,4-Dichlorophenoxyacetic acid, 1.0 mg/kg, iv, Male, B6C3F1; remark: listed apart in the source
[28] = system: Rat; assay: concentration in plasma after dosing; conditions: dosed: Methyleugenol, 37 mg/kg, oral, Male, F344/N
[29] = system: Rat; assay: concentration in plasma after dosing; conditions: dosed: Methyleugenol, 37 mg/kg, oral, Male, F344/N; remark: listed apart in the source
[30] = system: Rat; assay: concentration in plasma after dosing; conditions: 0.5 h; dosed: Primidone; 130 mg/kg; oral; Male; Harlan Sprague Dawley
[31] = system: Rat; assay: concentration in plasma after dosing; conditions: 3 h; dosed: Primidone; 30 mg/kg; oral; Female; F344
[32] = system: Rat; assay: concentration in plasma after dosing; conditions: 3 h; dosed: Primidone; 130 mg/kg; oral; Male; Harlan Sprague Dawley
[33] = system: Rat; assay: concentration in plasma after dosing; conditions: 9 h; dosed: Primidone; 130 mg/kg; oral; Female; F344

c1ccncc1 [Pyridine]
Conditions	concentration in plasma [ng/mL]
[1]	6010
[2]	4150

O=C(c1ccccc1)c1ccc(O)cc1O [2,4-Dihydroxybenzophenone]
Conditions	concentration in plasma [ng/mL]
[3]	232
[4]	472
[5]	1540
[6]	3210

Conditions	concentration in plasma [ng/mL]
[7], 0.25 h	276
[7], 2 h	92.3
[7], 2.5 min	63.7
[7], 10 min	130
[8], 3 h	71.8
[8], 10 min	40.9
[9], 10 h	203
[9], 10 min	55.1
[10], 0.25 h	123
[10], 4 h	77.4
[11], 0.5 h	195
[11], 5 h	85.4

CC(C)[C@]12CC(=O)[C@H](C)[C@H]1C2 [alpha-Thujone]
Conditions	concentration in brain [ng/g]	concentration in plasma [ng/mL]
[12]	107	–
[13]	615	–
[14]	416	–
[15]	84.6	–
[16]	–	33.6
[17]	–	104
[18]	–	267
[19]	–	233
[20]	–	176
[21]	–	176

O=S(=O)([O-])C(F)(F)C(F)(F)C(F)(F)C(F)(F)C(F)(F)C(F)(F)F.[K+] [Perfluorohexane-1-sulphonic acid – potassium salt]
Conditions	concentration in brain [ng/g]	concentration in kidney [ng/g]
[22]	1520	–
[23]	–	4040
[24]	–	18100

O=C(O)COc1ccc(Cl)cc1Cl [2,4-Dichlorophenoxyacetic acid]
concentration in plasma [ng/mL]
Conditions	[25]	[26]	[27]
0.25 h	14100	8220	7400
0.5 h	9550	6040	5390
0.75 h	5750	–	–
1 h	–	3120	5370
2 h	2070	–	1290
2.5 h	–	266	211
2.5 min	28500	–	7760
3 h	419	1250	248
3.5 h	410	–	–
5 min	–	6550	6530
10 min	10400	–	9300

C=CCc1ccc(OC)c(OC)c1 [Methyleugenol]
concentration in plasma [ng/mL]
Conditions	0.5 h	1.5 h	3 h	6 h
[28]	–	23.6	–	8
[29]	293	–	21.9	–

CCC1(c2ccccc2)C(=O)NCNC1=O [Primidone]
Conditions	concentration in plasma [ng/mL]
[30]	47900
[31]	19900
[32]	108000
[33]	52500
